From patent publication US20260240842A1, “METHODS TO PREVENT THERAPY RESISTANCE IN MELANOMA VIA BLOCKING GENOMIC INSTABILITY” (THE REGENTS OF THE UNIVERSITY OF CALIFORNIA, priority 2022, published 2026)

Tests used:
[1] = system: human BRAF^V600MUT (M229, M249, M395) or NRAS^Q61MUT (M202, M207, M245) melanoma cell lines; assay: Long-term clonogenic growth: emergence of acquired MAPKi-resistant colonies (DTPPs) in parental melanoma cell lines under MAPKi; format: cell-based; conditions: parental cell lines, FIG. 11C to 11E and FIG. 12
Experimental: FIGS. 4A-4U. DNA-PKi and/or PARPi co-treatment prevents acquired MAPKi-resistance in human melanoma cell lines. FIGS. 4A to 4O: Long-term clonogenic growth of isogenic parental and acquired MAPKi-resistant BRAF^V600MUT (4A to 4H) or NRAS^Q61MUT (4I to 4O) human melanoma cell lines showing acquired-resistant colonies to BRAFi+MEKi (PLX4032 at 0.5 mM, AZD6244 at 0.5 mM in 4A and 4G; PLX4032 at 0.25 mM, AZD6244 at 0.25 mM in 4D; PLX4032 at 1 mM, AZD6244 at 1 mM in 4B, 4C, 4E, 4F and 4H) or MEKi (trametinib at 0.005 mM in I and 0.01 mM in 4J and 4N; trametinib at 0.1 mM in 4K, 4M and 4O) and their suppression by indicated co-treatments with DNA-PKi (NU7026) and/or PARPi (ABT888) at indicated concentrations. Top, representative cultures; bottom, quantifications over n=4 fields (mean±SD). Data representative of 2 to 4 independent repeats. Seeding densities (cells/well in 6-well dishes) and culture durations (days): (4A) 5,000; 31, (4B) 1,000; 17, (4C) 5,000; 18, (4D) 40,000; 40, (4E) 5,000; 14, (4F) 5,000; 12, (4G) 20,000; 30, (4H) 20,000; 21, (4I) 40,000; 30, (4J) 50,000; 31, (4K) 5,000; 17, (4L) 5,000; 22, (4M) 5,000; 16, (4N) 20.000; 16, and (4O) 5,000; 16. Data representative of 2 to 4 independent repeats. FIGS. 4P and 4Q: Western blot, MTT assay (upper), and clonogenic growth assay (lower) of M245 cells transduced by lentivirus harboring shVector control or shRNAs of PRKDC (4P) or LIG4 (4Q). TUBULIN, loading control. Clonogenic growth with vehicle (14 days, 5,000 cells/well in 6-well dishes) or MEKi (29 days, 50,000 cells/well in 6-well dishes) treatments. MEKi, trametinib at 0.01 μM. Representative results of two independent experiments; quantification of n=4 fields (mean±SD). FIGS. 4R and 4S: As in 4A and 4J, respectively, except DNA-PKi and/or PARPi co-treatments were performed in M229 (4R) and M245 (4S) at a later stage of MAPKi treatment (see timepoint schema). Inhibitor concentrations for M229: BRAFi+MEKi (PLX4032 at 0.5 μM, AZD6244 at 0.5 μM), NU7026 (8 μM), ABT888 (4 μM) and NU7026+ABT888 (4 μM+4 μM). Inhibitor concentrations for M245: MEKi (trametinib at 0.01 μM), NU7026 (5 μM), ABT888 (1 μM) and NU7026+ABT888 (5 μM+1 μM). Left, representative cultures; right, quantifications over n=4 fields (mean±SD). Data representative of 2 independent repeats. FIGS. 4T and 4U: As in 4A and 4J, respectively, except DNA-PKi and/or PARPi co-treatments were performed in M229 (4T) and M245 cells (4U) at the same concentrations in R and S for the entire durations (day 1-28 in 4T; day 1-30 in 4U), the first half (day 1-14 in T; day 1-15 in 4U) or the second half (day 14-28 in 4T: day 15-30 in 4U) of the total treatment course. Top, representative cultures; bottom, quantifications over n=4 fields (mean±SD). Data representative of 2 independent repeats. P values (one-way ANOVA followed by Tukey's multiple comparison test) comparing indicated cultures versus MAPKi-only cultures (4A to 4O and 4R to 4U) or shVector culture (4P and 4Q): *, p<0.05; **, p<0.01: ***, p<0.001.
FIGS. 12A-12F. DNA-PKi and/or PARPi co-treatment prevents acquired MAPKi-resistance in human melanoma cell lines. FIGS. 12A to 12F: Long-term clonogenic growth of BRAF^V600MUT (12A, 12C and 12E) or NRAS^Q61MUT (12B, 12D and 12F) cell lines showing acquired-resistant colonies to BRAFi+MEKi (PLX4032 at 0.5 mM, AZD6244 at 0.5 mM for M229 and M395; PLX4032 at 0.25 mM, AZD6244 at 0.25 mM for M249) or MEKi (trametinib at 0.005 mM for M202 and 0.01 mM for M207 and M245) and their suppression by indicated co-treatments with DNA-PKi (VX984 in 12A and 12B; AZD7648 in 12C and 12D) and/or PARPi (olaparib in 12E and 12F) at indicated concentrations. Top, representative cultures; bottom, quantifications over n=4 fields (mean±SD). Data representative of 2 independent repeats. Seeding densities (cells/well in 6-well dishes) and culture durations (days): M202 (40,000, 30), M207 (20,000, 16), M229 (5,000, 32), M245 (50,000, 31), M249 (40,000, 40), and M395 (20,000, 30). […]

γH2AX = assay: Immunofluorescence of γH2AX nuclear foci in early on-treatment PDX tumors; format: in vivo, NSG mice; conditions: short-term MEKi treatment in Mel_PDX1; FIG. 13G
Description: FIGS. 13A-13H. In vivo impacts of DNA-PKi when combined with MAPKi. FIGS. 13A and 13B: Long-term follow-up of tumor volumes (13A, BRAFi+MEKi, n=5 tumors; BRAFi+MEKi+DNA-PKi, n=6 tumors) (13B, MEKi, n=6 tumors; MEKi+DNAP-PKi, n=6 tumors) and average mice body weights for 13A and 13B. Related to experiments in FIGS. 7B and 7E, respectively. FIGS. 13C and 13D, Tumor volumes (mean±SEM) of two examples of tumor models treated short-term with vehicle or indicated single versus combined agents. Inhibitors and dosages are identical to those in FIGS. 7C and 7E, respectively. The numbers of tumors and their sizes are shown in the photographs (right) taken at the times of tumor harvest (end points). FIGS. 13E to 13G: Immunofluorescence of p-ERK (13E), p-DNA-PKcs (S2056) (13F), or γH2AX (13G) levels in Mel_PDX1 tumor model, treated with vehicle or indicated single versus combined agents for 11 days (shown in 13C). DAPI, nuclear stain. Scale bar, 50 μm (13E) and 20 μm (13F and 13G). Representative images shown for two tumors analyzed per group. Quantification of p-DNA-PKcs signals obtained by taking the average of positively stained foci per nucleus (13F, representative of 4 fields). Quantification of γH2AX signals analyzed either by percentage of cells with γH2AX foci or percentage of cells with greater than 5 γH2AX foci (13G, representative of 4 fields). […]

SMILES	combinatorial efficacy of next-generation DNA-PKi and PARPi with MAPKi [1]	tumor cells with gH2AX nuclear foci (γH2AX) [%]
Cc1cc2ncnn2cc1Nc1ncc2c(n1)n(C1CCOCC1)c(=O)n2C [AZD7648]	corroborated the combinatorial efficacy	–
O=C(c1cc(Cc2n[nH]c(=O)c3ccccc23)ccc1F)N1CCN(C(=O)C2CC2)CC1 [olaparib]	corroborated the combinatorial efficacy	–
CC(=O)Nc1cccc(-n2c(=O)n(C3CC3)c(=O)c3c(Nc4ccc(I)cc4F)n(C)c(=O)c(C)c32)c1 [trametinib]	–	> 50
